Measured values from US6781000B1, “Alpha-ketoamide inhibitors of 20S proteasome” (CV Theurapeutics, Inc., priority 1998, dated 2004).

The molecules below were run against T1, chymotrypsin-like activity of 20S proteasome (Bos taurus, UniProt Q2TBX6+Q32KL2) (assay: 20S proteasome chymotryptic activity inhibition assay (Suc-Leu-Leu-Val-Tyr-AMC cleavage)). Settings: 2 μg 20S proteasome from bovine brain, 50 μM fluorogenic substrate, 15 minutes at 37° C., pH7.5.
T1 construct: was purified to homogeneity from bovine brain according to published methods; from tissue; host or cells: bovine brain
Format: biochemical
Experimental: Compounds of this invention prepared according to the method of Example 1 were tested as follows. The 20S catalytic subunit of the proteasome (also known as the multicatalytic proteinase complex) was purified to homogeneity from bovine brain according to published methods (Wilk S. and Orlowski,M 1983, 40 842 J.Neurochem). The chymotryptic activity of the complex is measured by the increase in fluorescence following cleavage of the substrate peptide succinyl-leucine-leucine-valine-tyrosine-7-amino-4methyl coumarin. The standard in vitro assay consists of 2 μg 20S proteasome, 0.1-100 μg/ml proteasome inhibitor in 200 μl 50 mM HEPES, containing 0.1% sodium dodecyl sulphate, pH7.5. The proteolytic reaction is initiated by the addition of 50 μM flourogenic peptide substrate and allowed to progress for 15 minutes at 37° C. The reaction is terminated by the addition of 100 μL of 100 mM acetate buffer, pH4.0. The rate of proteolysis is directly proportional to the amount of liberated aminomethylcoumarin which is measured by fluorescent spectroscopy (EX 370 nm, EM 430 nm).
For `CC(C)CC(NC(=O)C(NC(=O)C(=O)Cc1c[nH]c2ccccc12)C(C)C)C(=O)NC(Cc1ccccc1)C(=O)O` (stereo not drawn) [Compound 111], the “IC50 for the inhibition of the chymotrypsin-like activity of 20S proteasome” value (shortened to “IC50 for the inhibition”) was over 10 µg/mL.
In the case of `CC(C)CC(NC(=O)C(Cc1ccc(O)cc1)NC(=O)C(=O)Cc1c[nH]c2ccccc12)C(=O)NC(Cc1ccccc1)C(=O)O` (stereo not drawn) [Compound 113], the “IC50 for the inhibition” value is reported as over 10 µg/mL.
With `CCCCC(NC(=O)C(CC(C)C)NC(=O)CNC(=O)C(=O)Cc1c[nH]c2ccccc12)C(=O)O` (stereo not drawn) [Compound 119] the “IC50 for the inhibition” value was over 10 µg/mL.
For `CCCCC(NC(=O)C(CC(C)C)NC(=O)CCNC(=O)C(=O)Cc1c[nH]c2ccccc12)C(=O)O` (stereo not drawn) [Compound 120], the “IC50 for the inhibition” value was over 10 µg/mL.
For `CCCCC(NC(=O)C(CC(C)C)NC(=O)C(CCCC)NC(=O)C(=O)Cc1c[nH]c2ccccc12)C(=O)O` (stereo not drawn) [Compound 121], the “IC50 for the inhibition” value was over 10 µg/mL.
With `CCCCC(NC(=O)C(CC(C)C)NC(=O)C(Cc1ccccc1)NC(=O)C(=O)Cc1c[nH]c2ccccc12)C(=O)O` (stereo not drawn) [Compound 122] the “IC50 for the inhibition” value was over 10 µg/mL.
With `CCCCC(NC(=O)C(CC(C)C)NC(=O)C(NC(=O)C(=O)Cc1c[nH]c2ccccc12)C(C)O)C(=O)O` (stereo not drawn) [Compound 123] the “IC50 for the inhibition” value was over 10 µg/mL.
For `CCCCC(NC(=O)C(CC(C)C)NC(=O)C(C)NC(=O)C(=O)Cc1c[nH]c2ccccc12)C(=O)O` (stereo not drawn) [Compound 124], the “IC50 for the inhibition” value was over 10 µg/mL.
`CCCC[C@H](NC(=O)[C@@H](CC(C)C)NC(=O)[C@H](CC(=O)O)NC(=O)C(=O)Cc1c[nH]c2ccccc12)C(=O)O` [Compound 125] gave an IC50 of over 18.4 µM.
With `CCCCC(NC(=O)C(CC(C)C)NC(=O)C(NC(=O)C(=O)Cc1c[nH]c2ccccc12)C(C)C)C(=O)O` (stereo not drawn) [Compound 126] the “IC50 for the inhibition” value was over 10 µg/mL.
For `CCCCC(NC(=O)C(CC(C)C)NC(=O)C(CCC)NC(=O)C(=O)Cc1c[nH]c2ccccc12)C(=O)O` (stereo not drawn) [Compound 127], the IC50 was over 18.9 µM.
With `CCCCC(NC(=O)C(CC(C)C)NC(=O)C(Cc1ccc(O)cc1)NC(=O)C(=O)Cc1c[nH]c2ccccc12)C(=O)O` (stereo not drawn) [Compound 128] the “IC50 for the inhibition” value was over 10 µg/mL.
`CC(C)CC(NC(=O)CNC(=O)C(=O)Cc1c[nH]c2ccccc12)C(=O)NC(CC(=O)O)C(=O)O` (stereo not drawn) [Compound 134] was tested, and the “IC50 for the inhibition” value was over 10 µg/mL.
`CC(C)CC(NC(=O)CCNC(=O)C(=O)Cc1c[nH]c2ccccc12)C(=O)NC(CC(=O)O)C(=O)O` (stereo not drawn) [Compound 135] was tested, and the “IC50 for the inhibition” value was over 10 µg/mL.
In the case of `CCCCC(NC(=O)C(=O)Cc1c[nH]c2ccccc12)C(=O)NC(CC(C)C)C(=O)NC(CC(=O)O)C(=O)O` (stereo not drawn) [Compound 136], the “IC50 for the inhibition” value is reported as over 10 µg/mL.
In the case of `CC(C)CC(NC(=O)C(Cc1ccccc1)NC(=O)C(=O)Cc1c[nH]c2ccccc12)C(=O)NC(CC(=O)O)C(=O)O` (stereo not drawn) [Compound 137], the “IC50 for the inhibition” value is reported as over 10 µg/mL.
With `CC(C)CC(NC(=O)C(NC(=O)C(=O)Cc1c[nH]c2ccccc12)C(C)O)C(=O)NC(CC(=O)O)C(=O)O` (stereo not drawn) [Compound 138] the “IC50 for the inhibition” value was over 10 µg/mL.
With `CC(C)CC(NC(=O)C(C)NC(=O)C(=O)Cc1c[nH]c2ccccc12)C(=O)NC(CC(=O)O)C(=O)O` (stereo not drawn) [Compound 139] the “IC50 for the inhibition” value was over 10 µg/mL.
In the case of `CCC(NC(=O)C(=O)Cc1c[nH]c2ccccc12)C(=O)NC(CC(C)C)C(=O)NC(CC(=O)O)C(=O)O` (stereo not drawn) [Compound 140], the “IC50 for the inhibition” value is reported as over 10 µg/mL.
With `CC(C)CC(NC(=O)C(NC(=O)C(=O)Cc1c[nH]c2ccccc12)C(C)C)C(=O)NC(CC(=O)O)C(=O)O` (stereo not drawn) [Compound 141] the “IC50 for the inhibition” value was over 10 µg/mL.
`CCCC(NC(=O)C(=O)Cc1c[nH]c2ccccc12)C(=O)NC(CC(C)C)C(=O)NC(CC(=O)O)C(=O)O` (stereo not drawn) [Compound 142] was tested, and the “IC50 for the inhibition” value was over 10 µg/mL.
With `CC(C)CC(NC(=O)C(Cc1ccc(O)cc1)NC(=O)C(=O)Cc1c[nH]c2ccccc12)C(=O)NC(CC(=O)O)C(=O)O` (stereo not drawn) [Compound 143] the “IC50 for the inhibition” value was over 10 µg/mL.
In the case of `CC(C)CC(NC(=O)CCNC(=O)C(=O)Cc1c[nH]c2ccccc12)C(=O)NC(CCC(=O)O)C(=O)O` (stereo not drawn) [Compound 150], the “IC50 for the inhibition” value is reported as over 10 µg/mL.
`CCCCC(NC(=O)C(=O)Cc1c[nH]c2ccccc12)C(=O)NC(CC(C)C)C(=O)NC(CCC(=O)O)C(=O)O` (stereo not drawn) [Compound 151] was tested, and the “IC50 for the inhibition” value was over 10 µg/mL.
For `CC(C)CC(NC(=O)C(Cc1ccccc1)NC(=O)C(=O)Cc1c[nH]c2ccccc12)C(=O)NC(CCC(=O)O)C(=O)O` (stereo not drawn) [Compound 152], the “IC50 for the inhibition” value was over 10 µg/mL.
With `CC(C)CC(NC(=O)C(NC(=O)C(=O)Cc1c[nH]c2ccccc12)C(C)O)C(=O)NC(CCC(=O)O)C(=O)O` (stereo not drawn) [Compound 153] the “IC50 for the inhibition” value was over 10 µg/mL.
`CC(C)CC(NC(=O)C(C)NC(=O)C(=O)Cc1c[nH]c2ccccc12)C(=O)NC(CCC(=O)O)C(=O)O` (stereo not drawn) [Compound 154] was tested, and the “IC50 for the inhibition” value was over 10 µg/mL.
With `CC(C)CC(NC(=O)C(CC(=O)O)NC(=O)C(=O)Cc1c[nH]c2ccccc12)C(=O)NC(CCC(=O)O)C(=O)O` (stereo not drawn) [Compound 155] the “IC50 for the inhibition” value was over 10 µg/mL.
In the case of `CC(C)CC(NC(=O)C(NC(=O)C(=O)Cc1c[nH]c2ccccc12)C(C)C)C(=O)NC(CCC(=O)O)C(=O)O` (stereo not drawn) [Compound 156], the “IC50 for the inhibition” value is reported as over 10 µg/mL.
`CCCC(NC(=O)C(=O)Cc1c[nH]c2ccccc12)C(=O)NC(CC(C)C)C(=O)NC(CCC(=O)O)C(=O)O` (stereo not drawn) [Compound 157] was tested, and the “IC50 for the inhibition” value was over 10 µg/mL.
Work on `CC(C)CC(NC(=O)C(Cc1ccc(O)cc1)NC(=O)C(=O)Cc1c[nH]c2ccccc12)C(=O)NC(CCC(=O)O)C(=O)O` (stereo not drawn) [Compound 158] yielded an IC50 of over 16.4 µM.
In the case of `CCC(C)C(NC(=O)C(=O)Cc1c[nH]c2ccccc12)C(=O)NC(CC(C)C)C(=O)NC(CCC(=O)O)C(=O)O` (stereo not drawn) [Compound 159], the “IC50 for the inhibition” value is reported as over 10 µg/mL.
`CC(C)CC(NC(=O)C(CC1CCCCC1)NC(=O)C(=O)Cc1c[nH]c2ccccc12)C(=O)NC(CCC(=O)O)C(=O)O` (stereo not drawn) [Compound 160] was tested, and the “IC50 for the inhibition” value was over 10 µg/mL.
With `CC(C)CC(NC(=O)C(Cc1cccnc1)NC(=O)C(=O)Cc1c[nH]c2ccccc12)C(=O)NC(CCC(=O)O)C(=O)O` (stereo not drawn) [Compound 161] the “IC50 for the inhibition” value was over 10 µg/mL.
In the case of `CC(C)CC(NC(=O)C(Cc1ccc2ccccc2c1)NC(=O)C(=O)Cc1c[nH]c2ccccc12)C(=O)NC(CCC(=O)O)C(=O)O` (stereo not drawn) [Compound 162], the “IC50 for the inhibition” value is reported as over 10 µg/mL.
For `CC(C)CC(NC(=O)C(Cc1ccc(-c2ccccc2)cc1)NC(=O)C(=O)Cc1c[nH]c2ccccc12)C(=O)NC(CCC(=O)O)C(=O)O` (stereo not drawn) [Compound 163], the “IC50 for the inhibition” value was over 10 µg/mL.
In the case of `CC(C)CC(NC(=O)C(Cc1ccc2ccccc2c1)NC(=O)C(=O)Cc1c[nH]c2ccccc12)C(=O)NC(C(=O)O)C(C)C` (stereo not drawn) [Compound 164], the “IC50 for the inhibition” value is reported as over 10 µg/mL.
`CC(C)CC(NC(=O)C(Cc1ccc(-c2ccccc2)cc1)NC(=O)C(=O)Cc1c[nH]c2ccccc12)C(=O)NC(C(=O)O)C(C)C` (stereo not drawn) [Compound 165] was tested, and the “IC50 for the inhibition” value was over 10 µg/mL.
`CCC(C)C(NC(=O)C(=O)Cc1c[nH]c2ccccc12)C(=O)NC(CC(C)C)C(=O)NC(C(=O)O)C(C)C` (stereo not drawn) [Compound 167] was tested, and the “IC50 for the inhibition” value was over 10 µg/mL.
With `CC(C)CC(NC(=O)C(CC1CCCCC1)NC(=O)C(=O)Cc1c[nH]c2ccccc12)C(=O)NC(C(=O)O)C(C)C` (stereo not drawn) [Compound 168] the “IC50 for the inhibition” value was over 10 µg/mL.
In the case of `CC(C)CC(NC(=O)C(Cc1cccnc1)NC(=O)C(=O)Cc1c[nH]c2ccccc12)C(=O)NCC(=O)O` (stereo not drawn) [Compound 169], the “IC50 for the inhibition” value is reported as over 10 µg/mL.
`CC(C)CC(NC(=O)C(Cc1ccc2ccccc2c1)NC(=O)C(=O)Cc1c[nH]c2ccccc12)C(=O)NCC(=O)O` (stereo not drawn) [Compound 170] was tested, and the “IC50 for the inhibition” value was over 10 µg/mL.
In the case of `CC(C)CC(NC(=O)C(Cc1ccc(-c2ccccc2)cc1)NC(=O)C(=O)Cc1c[nH]c2ccccc12)C(=O)NCC(=O)O` (stereo not drawn) [Compound 171], the “IC50 for the inhibition” value is reported as over 10 µg/mL.
With `CC(C)CC(NC(=O)C(CC1CCCCC1)NC(=O)C(=O)Cc1c[nH]c2ccccc12)C(=O)NC(C(=O)O)C(C)C` (stereo not drawn) [Compound 172] the “IC50 for the inhibition” value was over 10 µg/mL.
`CC(C)CC(NC(=O)C(Cc1cccnc1)NC(=O)C(=O)Cc1c[nH]c2ccccc12)C(=O)NC(C(=O)O)C(C)C` (stereo not drawn) [Compound 173] was tested, and the “IC50 for the inhibition” value was over 10 µg/mL.
In the case of `CCCCC(NC(=O)C(CC(C)C)NC(=O)C(Cc1ccc(-c2ccccc2)cc1)NC(=O)C(=O)Cc1c[nH]c2ccccc12)C(=O)O` (stereo not drawn) [Compound 174], the “IC50 for the inhibition” value is reported as 5 µg/mL.
In the case of `CC(C)CC(NC(=O)C(Cc1ccc(-c2ccccc2)cc1)NC(=O)C(=O)Cc1c[nH]c2ccccc12)C(=O)NC(Cc1ccccc1)C(=O)O` (stereo not drawn) [Compound 175], the “IC50 for the inhibition” value is reported as over 10 µg/mL.
With `CC(C)CC(NC(=O)C(Cc1ccc(-c2ccccc2)cc1)NC(=O)C(=O)Cc1c[nH]c2ccccc12)C(=O)NC(CC(=O)O)C(=O)O` (stereo not drawn) [Compound 176] the “IC50 for the inhibition” value was 1 µg/mL.
